Data: patent US11226337B2, “Chemoproteomic profiling of protein electrophilic and oxidative post-translational modifications” (Zenagem, LLC, priority 2017, dated 2022)

How the values were obtained:
Experiment in all cases: SILAC RP-ABPP
Format in all cases: cell-based
[1] = target: T1, APP Amyloid beta A4 protein (P05067) (Homo sapiens, UniProt P05067); conditions: SILAC H/L, MDA-MB-231
T1 construct: shared by both the endogenous and recombinant forms of these proteins; endogenous in cells; host or cells: HEK293T and MDA-MB-231
T1 sequence (P05067 18-770): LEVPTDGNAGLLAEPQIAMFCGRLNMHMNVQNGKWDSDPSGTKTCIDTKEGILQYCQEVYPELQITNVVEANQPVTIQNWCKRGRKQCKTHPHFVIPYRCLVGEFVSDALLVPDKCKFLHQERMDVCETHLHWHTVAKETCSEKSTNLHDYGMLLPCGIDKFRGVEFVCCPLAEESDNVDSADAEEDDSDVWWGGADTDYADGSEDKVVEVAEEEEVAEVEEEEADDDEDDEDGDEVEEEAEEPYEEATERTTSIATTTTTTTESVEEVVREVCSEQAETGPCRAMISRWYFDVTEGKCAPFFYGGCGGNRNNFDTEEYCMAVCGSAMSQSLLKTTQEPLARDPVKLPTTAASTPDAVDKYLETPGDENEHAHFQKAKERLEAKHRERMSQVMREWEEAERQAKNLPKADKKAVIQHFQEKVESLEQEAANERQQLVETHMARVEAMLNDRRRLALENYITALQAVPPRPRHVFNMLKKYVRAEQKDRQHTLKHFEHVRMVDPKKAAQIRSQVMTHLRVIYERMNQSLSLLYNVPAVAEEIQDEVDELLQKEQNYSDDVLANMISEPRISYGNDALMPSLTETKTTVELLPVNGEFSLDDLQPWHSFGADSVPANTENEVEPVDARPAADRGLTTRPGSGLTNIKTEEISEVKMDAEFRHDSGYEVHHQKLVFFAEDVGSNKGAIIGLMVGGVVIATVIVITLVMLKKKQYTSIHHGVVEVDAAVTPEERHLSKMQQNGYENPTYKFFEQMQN
Procedure, shortened: (§1)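 Heavy SILAC HEK293T or MDA-MB-231 cells were treated with hydrazine probe 1 (3 mM, 0.5 h); light cells received non-clickable hydrazine 3 at the same concentration (enrichment) or probe plus 10× competitor 3 (competition). Lysates were mixed, clicked to biotin-azide and analysed by LC-MS; values are median heavy:light peptide ratios averaged over ≥3 replicates.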

[2] = target: T2, BLMH Bleomycin hydrolase (Q13867) (Homo sapiens, UniProt Q13867); conditions: SILAC H/L, HEK293T
T2 construct: In Situ Labelling of Cells with Hydrazine Probes for MS Experiments; endogenous in cells
T2 sequence (Q13867 whole entry): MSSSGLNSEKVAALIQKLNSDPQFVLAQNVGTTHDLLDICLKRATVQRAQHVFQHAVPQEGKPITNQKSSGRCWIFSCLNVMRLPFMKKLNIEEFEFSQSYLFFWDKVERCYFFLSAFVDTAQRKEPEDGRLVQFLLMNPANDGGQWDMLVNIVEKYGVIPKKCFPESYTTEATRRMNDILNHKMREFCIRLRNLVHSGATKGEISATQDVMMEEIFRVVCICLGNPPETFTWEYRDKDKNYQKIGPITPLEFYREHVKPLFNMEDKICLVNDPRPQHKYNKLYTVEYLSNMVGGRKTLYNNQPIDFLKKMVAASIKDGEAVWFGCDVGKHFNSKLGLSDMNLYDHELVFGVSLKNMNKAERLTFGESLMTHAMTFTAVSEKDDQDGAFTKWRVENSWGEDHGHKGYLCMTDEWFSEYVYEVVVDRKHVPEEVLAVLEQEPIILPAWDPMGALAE
Procedure, shortened: as §1

[3] = target: T3, BLVRB Flavin reductase (NADPH) (P30043) (Homo sapiens, UniProt P30043); conditions: SILAC H/L, HEK293T
T3 construct: shared by both the endogenous and recombinant forms of these proteins; endogenous in cells; host or cells: HEK293T and MDA-MB-231
T3 sequence (P30043 whole entry): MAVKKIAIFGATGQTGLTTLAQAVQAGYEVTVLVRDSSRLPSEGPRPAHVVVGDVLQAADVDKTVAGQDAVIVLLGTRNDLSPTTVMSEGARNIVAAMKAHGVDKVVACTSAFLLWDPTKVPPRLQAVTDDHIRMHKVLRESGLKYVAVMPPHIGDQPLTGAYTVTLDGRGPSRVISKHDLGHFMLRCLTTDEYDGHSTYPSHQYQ
Procedure, shortened: as §1

[4] = target: T4, CPVL Probable serine carboxypeptidase CPVL (Q9H3G5) (Homo sapiens, UniProt Q9H3G5); conditions: SILAC H/L, HEK293T
T4 construct: shared by both the endogenous and recombinant forms of these proteins; endogenous in cells; host or cells: HEK293T and MDA-MB-231
Procedure, shortened: as §1

[5] = target: T5, DCUN1D5 DCN1like protein 5 (Q9BTE7) (Homo sapiens, UniProt Q9BTE7); conditions: SILAC H/L, HEK293T
T5 construct: shared by both the endogenous and recombinant forms of these proteins; endogenous in cells; host or cells: HEK293T and MDA-MB-231
T5 sequence (Q9BTE7 whole entry): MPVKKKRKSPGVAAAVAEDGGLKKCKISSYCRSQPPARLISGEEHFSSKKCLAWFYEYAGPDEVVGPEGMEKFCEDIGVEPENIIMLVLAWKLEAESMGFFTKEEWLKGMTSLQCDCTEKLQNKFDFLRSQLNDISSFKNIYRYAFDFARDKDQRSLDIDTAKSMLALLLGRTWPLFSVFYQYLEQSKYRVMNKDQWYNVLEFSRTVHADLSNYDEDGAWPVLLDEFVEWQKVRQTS
Procedure, shortened: as §1

[6] = target: T6, IRS4 Insulin receptor substrate 4 (O14654) (Homo sapiens, UniProt O14654); conditions: SILAC H/L, HEK293T
T6 construct: In Situ Labelling of Cells with Hydrazine Probes for MS Experiments; endogenous in cells
T6 sequence (O14654 whole entry): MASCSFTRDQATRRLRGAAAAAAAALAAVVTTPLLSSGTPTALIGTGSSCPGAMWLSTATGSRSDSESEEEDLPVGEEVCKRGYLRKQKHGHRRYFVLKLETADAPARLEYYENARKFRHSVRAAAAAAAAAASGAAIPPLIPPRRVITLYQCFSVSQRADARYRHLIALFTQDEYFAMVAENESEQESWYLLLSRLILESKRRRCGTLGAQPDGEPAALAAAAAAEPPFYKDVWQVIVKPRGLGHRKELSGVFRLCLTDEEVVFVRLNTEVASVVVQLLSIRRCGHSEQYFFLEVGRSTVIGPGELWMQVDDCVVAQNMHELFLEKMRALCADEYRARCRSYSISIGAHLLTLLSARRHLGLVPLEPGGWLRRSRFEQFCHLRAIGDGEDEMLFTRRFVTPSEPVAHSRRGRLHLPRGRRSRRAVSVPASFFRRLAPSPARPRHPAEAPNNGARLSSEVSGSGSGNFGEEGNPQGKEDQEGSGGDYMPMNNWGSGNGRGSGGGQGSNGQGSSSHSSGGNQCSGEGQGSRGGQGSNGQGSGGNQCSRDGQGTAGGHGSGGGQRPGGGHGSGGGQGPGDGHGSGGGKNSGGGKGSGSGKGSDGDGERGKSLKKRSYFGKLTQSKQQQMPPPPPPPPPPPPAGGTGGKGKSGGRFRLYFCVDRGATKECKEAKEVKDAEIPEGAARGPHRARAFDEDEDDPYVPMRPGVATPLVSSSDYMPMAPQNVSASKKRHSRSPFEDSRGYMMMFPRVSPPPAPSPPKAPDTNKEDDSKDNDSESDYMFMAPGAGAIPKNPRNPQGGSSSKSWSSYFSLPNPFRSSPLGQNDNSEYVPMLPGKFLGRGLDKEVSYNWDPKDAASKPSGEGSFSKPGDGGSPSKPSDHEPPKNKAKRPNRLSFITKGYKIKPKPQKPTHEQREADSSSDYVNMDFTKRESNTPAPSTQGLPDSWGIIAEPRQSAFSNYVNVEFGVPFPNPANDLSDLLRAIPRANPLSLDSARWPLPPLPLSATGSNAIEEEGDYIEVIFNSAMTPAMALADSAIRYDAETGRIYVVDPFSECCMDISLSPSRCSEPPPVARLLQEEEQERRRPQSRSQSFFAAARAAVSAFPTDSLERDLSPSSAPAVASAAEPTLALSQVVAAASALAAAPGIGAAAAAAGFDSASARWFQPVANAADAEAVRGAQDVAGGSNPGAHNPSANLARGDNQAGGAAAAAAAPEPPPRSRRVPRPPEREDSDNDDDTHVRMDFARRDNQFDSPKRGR
Procedure, shortened: as §1

[7] = target: T7, NSFL1C NSFL1 cofactor p47 (Q9UNZ2) (Homo sapiens, UniProt Q9UNZ2); conditions: SILAC H/L, MDA-MB-231
T7 construct: In Situ Labelling of Cells with Hydrazine Probes for MS Experiments; endogenous in cells
T7 sequence (Q9UNZ2 whole entry): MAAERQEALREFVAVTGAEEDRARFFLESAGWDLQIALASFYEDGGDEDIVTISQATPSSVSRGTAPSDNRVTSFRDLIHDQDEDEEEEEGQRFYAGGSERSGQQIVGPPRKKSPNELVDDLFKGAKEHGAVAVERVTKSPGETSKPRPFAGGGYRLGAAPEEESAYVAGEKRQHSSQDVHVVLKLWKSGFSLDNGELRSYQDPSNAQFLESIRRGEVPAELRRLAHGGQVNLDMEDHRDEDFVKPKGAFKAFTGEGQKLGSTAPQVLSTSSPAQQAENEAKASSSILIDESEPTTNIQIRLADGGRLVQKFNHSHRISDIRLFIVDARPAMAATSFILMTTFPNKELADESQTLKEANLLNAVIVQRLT
Procedure, shortened: as §1

[8] = target: T8, PITRM1 Presequence protease mitochondrial (Q5JRX3) (Homo sapiens, UniProt Q5JRX3); conditions: SILAC H/L, MDA-MB-231
T8 construct: In Situ Labelling of Cells with Hydrazine Probes for MS Experiments; endogenous in cells
T8 sequence (Q5JRX3 29-1037): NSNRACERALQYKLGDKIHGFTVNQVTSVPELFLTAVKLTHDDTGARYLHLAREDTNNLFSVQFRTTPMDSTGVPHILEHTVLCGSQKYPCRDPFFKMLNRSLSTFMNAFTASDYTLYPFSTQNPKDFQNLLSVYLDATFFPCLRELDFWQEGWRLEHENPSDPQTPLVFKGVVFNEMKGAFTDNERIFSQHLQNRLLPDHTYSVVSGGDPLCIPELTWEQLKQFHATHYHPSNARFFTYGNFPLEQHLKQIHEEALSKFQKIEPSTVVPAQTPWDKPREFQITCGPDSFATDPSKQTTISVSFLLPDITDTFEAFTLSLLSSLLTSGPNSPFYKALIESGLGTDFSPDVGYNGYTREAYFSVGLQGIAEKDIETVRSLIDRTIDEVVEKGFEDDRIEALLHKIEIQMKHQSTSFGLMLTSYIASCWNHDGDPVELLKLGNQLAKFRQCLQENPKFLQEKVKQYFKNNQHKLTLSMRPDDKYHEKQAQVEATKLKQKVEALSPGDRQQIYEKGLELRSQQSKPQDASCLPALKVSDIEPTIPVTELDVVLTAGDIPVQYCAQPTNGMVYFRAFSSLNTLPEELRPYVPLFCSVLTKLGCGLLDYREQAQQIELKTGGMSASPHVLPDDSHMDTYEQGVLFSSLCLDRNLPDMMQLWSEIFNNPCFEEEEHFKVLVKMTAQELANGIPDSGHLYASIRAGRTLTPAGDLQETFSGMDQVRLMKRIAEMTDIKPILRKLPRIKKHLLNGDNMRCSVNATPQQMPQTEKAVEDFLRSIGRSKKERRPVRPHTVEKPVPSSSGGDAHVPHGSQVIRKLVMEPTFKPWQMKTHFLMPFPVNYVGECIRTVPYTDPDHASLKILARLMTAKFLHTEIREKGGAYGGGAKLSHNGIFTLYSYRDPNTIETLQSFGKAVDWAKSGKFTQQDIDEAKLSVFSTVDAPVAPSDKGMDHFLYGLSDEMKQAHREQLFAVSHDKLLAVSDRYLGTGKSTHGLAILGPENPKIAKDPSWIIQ
Procedure, shortened: as §1

[9] = target: T9, PPA2 Inorganic pyrophosphatase 2 (Q9H2U2) (Homo sapiens, UniProt Q9H2U2); conditions: SILAC H/L, HEK293T
T9 construct: In Situ Labelling of Cells with Hydrazine Probes for MS Experiments; endogenous in cells
T9 sequence (Q9H2U2 33-334): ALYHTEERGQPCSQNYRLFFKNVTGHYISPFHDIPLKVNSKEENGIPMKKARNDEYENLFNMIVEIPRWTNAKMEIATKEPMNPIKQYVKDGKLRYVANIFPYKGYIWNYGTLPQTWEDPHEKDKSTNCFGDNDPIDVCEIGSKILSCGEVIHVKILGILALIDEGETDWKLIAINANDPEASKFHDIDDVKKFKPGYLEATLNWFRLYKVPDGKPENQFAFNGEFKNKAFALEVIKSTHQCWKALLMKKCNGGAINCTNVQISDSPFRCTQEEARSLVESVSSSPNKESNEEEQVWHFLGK
Procedure, shortened: as §1

[10] = target: T10, VAPA Vesicleassociated membrane (Q9P0L0) (Homo sapiens, UniProt Q9P0L0); conditions: SILAC H/L, MDA-MB-231
T10 construct: In Situ Labelling of Cells with Hydrazine Probes for MS Experiments; endogenous in cells
T10 sequence (Q9P0L0 whole entry): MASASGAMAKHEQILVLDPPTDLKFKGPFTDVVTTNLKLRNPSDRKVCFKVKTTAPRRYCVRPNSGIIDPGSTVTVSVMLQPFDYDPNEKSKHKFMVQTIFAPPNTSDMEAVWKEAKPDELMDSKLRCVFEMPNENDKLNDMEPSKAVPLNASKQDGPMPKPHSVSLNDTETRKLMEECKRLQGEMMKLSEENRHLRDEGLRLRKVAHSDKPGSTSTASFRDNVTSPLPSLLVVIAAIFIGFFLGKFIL
Procedure, shortened: as §1

[11] = target: T11, KDM1A Lysinespecific histone demethylase 1A (O60341) (Homo sapiens, UniProt O60341); conditions: SILAC H/L, HEK293T
T11 construct: In Situ Labelling of Cells with Hydrazine Probes for MS Experiments; endogenous in cells; host or cells: HEK293T and/or MDA-MB-231
Procedure, shortened: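 Heavy SILAC HEK293T or MDA-MB-231 cells were treated with a clickable hydrazine probe; light cells received the non-clickable analogue (enrichment) or the probe plus 10-fold excess non-clickable competitor (competition). Mixed proteomes underwent CuAAC with 100 μM biotin-azide for 1 h. Heavy:light ratios were taken as median peptide ratios (≥3 peptides) averaged over ≥3 replicates.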

## C#CCNN.Cl [probe 1, prop-2-yn-1-ylhydrazine hydrochloride]
[1]; probe 1 3 mM 0.5 h vs probe 3
  enrichment ratioavg: 16
[1]; probe 1 vs probe 1+10x probe 3
  competition ratioavg: 4
[2]; probe 1 3 mM 0.5 h vs probe 3
  enrichment ratioavg: 9
[2]; probe 1 vs probe 1+10x probe 3
  competition ratioavg: 1
[3]; probe 1 3 mM 0.5 h vs probe 3
  enrichment ratioavg: 20
[3]; probe 1 vs probe 1+10x probe 3
  competition ratioavg: 2
[4]; probe 1 3 mM 0.5 h vs probe 3
  enrichment ratioavg: 13
[4]; probe 1 vs probe 1+10x probe 3
  competition ratioavg: 3
[5]; probe 1 3 mM 0.5 h vs probe 3
  enrichment ratioavg: 6
[5]; probe 1 vs probe 1+10x probe 3
  competition ratioavg: 2
[6]; probe 1 3 mM 0.5 h vs probe 3
  enrichment ratioavg: 20
[6]; probe 1 vs probe 1+10x probe 3
  competition ratioavg: 1
[7]; probe 1 3 mM 0.5 h vs probe 3
  enrichment ratioavg: 8
[7]; probe 1 vs probe 1+10x probe 3
  competition ratioavg: 1
[8]; probe 1 3 mM 0.5 h vs probe 3
  enrichment ratioavg: 12
[8]; probe 1 vs probe 1+10x probe 3
  competition ratioavg: 2
[9]; probe 1 3 mM 0.5 h vs probe 3
  enrichment ratioavg: 7
[9]; probe 1 vs probe 1+10x probe 3
  competition ratioavg: 1
[10]; probe 1 3 mM 0.5 h vs probe 3
  enrichment ratioavg: 20
[10]; probe 1 vs probe 1+10x probe 3
  competition ratioavg: 1

## C#CCCNC(=O)c1ccc(NN)cc1.Cl [probe 2, N-(but-3-yn-1-yl)-4-hydrazinylbenzamide hydrochloride]
[11]; probe 2 1 mM 0.5 h vs probe 4
  enrichment ratioavg: 20
[11]; probe 2 vs probe 2+10x probe 4
  competition ratioavg: 2
